# In publication PMC11965660, “Isobavachalcone ameliorates Alzheimer disease pathology by autophagy-mediated clearance of amyloid beta and inhibition of NLRP3 inflammasome in primary astrocytes and 5x-FAD mice” (Frontiers in Pharmacology, 2025):
# Columns and labels:
# 5x-FAD mice [1] = test: Radial arm maze test; format: in vivo; details: for Latency to first entry to baited arm: 5x-FAD mice
# From the text: (§1) Hemizygous 5x-FAD transgenic mice (B6.Cg-Tg(APPSwFlLon, PSEN1*M146L*L286V) 6799Vas/Mmjax; MMRRC Strain: 034848-JAX) on congenic C57BL/6J genetic background were used for experiments. The 5x-FAD mice were genotyped using APP-specific qPCR probes to detect the transgene as per the protocol of Jackson Laboratory. Six months old 5x-FAD mice were randomly divided into three groups (n = 5), based on their body weights, with three males and two females in each group. We used mixed-cohort of males and females for our study to exclude any gender biased effect of IBC. Also, AD symptoms are more pronounced in females than in males ([Aggarwal and Mielke, 2023]), making it possible that males and females respond differently to the drug and treatment. Considering this, it is important to show effect of IBC on both sexes. At this age, Aβ deposition and neuroinflammation has already progressed in these mice. We have used IBC as a curative drug rather than a preventive drug. Prior to the initiation of the study, all the animals were acclimatized for 1 week under standard laboratory conditions; animals were drug naive with no prior procedures performed. All testing were performed from 1 to 4 p.m. IBC was orally (OD) given to two groups at different doses, 25 mg/kg (1% DMSO, 2% Tween 80, 19% PEG200, and 78% distilled water) and 50 mg/kg (1% DMSO, 5% Tween 80, 19% PEG200% and 75% distilled water) using oral gavage. 5x-FAD control mice were administered with vehicle (1% DMSO, 5% Tween 80, 19% PEG200% and 75% distilled water). For behavioral and Immunohistochemistry assays, experimenters were blinded to animal identity while carrying out the procedures.
# To check the effect of IBC on the behavior of 5x-FAD mice, open field test (OFT), rotarod (Make; Ugo Basile, rota-rod for mice 7650) and radial arm maze (Make; Ugo Basile) tests were performed. All behavioral assays and testing were performed by an experimenter blinded to the treatment groups. To check the effect of IBC on motor coordination and balancing rotarod test was performed. After acclimatizing mice with rotarod for 5 days, their latency to fall was calculated on the day of analysis. The given final values are the mean of three independent attempts of each mouse. OFT was performed to assess exploratory and locomotor activity in a white box (45 × 60 cm). Distance traveled, speed, time spent in corner and center zones and mobile episodes were recorded through an automated video tracking system using AnyMaze software. To check the effect of IBC on the spatial memory of mice, the eight-armed radial arm maze test was done. The mice were acclimatized to the maze for 5 days before the experiment. Each mouse was trained to navigate the maze for five consecutive days. The mouse was placed on the end of one arm (entry arm). For spatial memory assessment, a food reward (100 mg of butter cookies) was placed in the selected arm, which was considered as […]. The movement of mice was tracked with the help of automated AnyMaze software connected with a tracking camera and various memory retention parameters were assessed.
# 5x-FAD mice [2] = test: Open field test; format: in vivo; details: 25 and 50 mg/kg oral, vs 5x-FAD control
# From the text: (§2) Hemizygous 5x-FAD transgenic mice (B6.Cg-Tg(APPSwFlLon, PSEN1*M146L*L286V) 6799Vas/Mmjax; MMRRC Strain: 034848-JAX) on congenic C57BL/6J genetic background were used for experiments. The 5x-FAD mice were genotyped using APP-specific qPCR probes to detect the transgene as per the protocol of Jackson Laboratory. Six months old 5x-FAD mice were randomly divided into three groups (n = 5), based on their body weights, with three males and two females in each group. We used mixed-cohort of males and females for our study to exclude any gender biased effect of IBC. Also, AD symptoms are more pronounced in females than in males ([Aggarwal and Mielke, 2023]), making it possible that males and females respond differently to the drug and treatment. […]
# To check the effect of IBC on the behavior of 5x-FAD mice, open field test (OFT), rotarod (Make; Ugo Basile, rota-rod for mice 7650) and radial arm maze (Make; Ugo Basile) tests were performed. […] After acclimatizing mice with rotarod for 5 days, their latency to fall was calculated on the day of analysis. […] Distance traveled, speed, time spent in corner and center zones and mobile episodes were recorded through an automated video tracking system using AnyMaze software. […] The movement of mice was tracked with the help of automated AnyMaze software connected with a tracking camera and various memory retention parameters were assessed.
# Aβ plaques = test: Immunohistochemistry of Aβ in hippocampus; format: in vivo, 5x-FAD mice; details: for average number of Aβ plaques: 5x-FAD mice
# From the text: as §1
# Mice’s hippocampus tissue was fixed in 10% formalin. Dehydrated tissue slices were made and placed on slides. For analysis, tissue was rehydrated following subsequent incubation in xylene, xylene: ethanol, 100% ethanol, 90% ethanol, 70% and 50% ethanol. After tissue rehydration, cells were permeabilized using 0.4% Triton-X100 for 10 min. […] Images were taken in a CQ1 high throughput imaging system and analyzed using cell pathfinder software.
# Aβ42 [3] = test: Aβ estimation in plasma by ELISA; format: in vivo, 5x-FAD mice; details: 25 and 50 mg/kg, vs untreated 5x-FAD control
# From the text: as §1, with “IBC was orally (OD) given to two groups at different doses, 25 mg/kg (1% DMSO, 2% Tween 80, 19% PEG200, and 78% distilled water) and 50 mg/kg (1% DMSO, 5% Tween 80, 19% PEG200% and 75% distilled water) using oral gavage. 5x-FAD control mice were administered with vehicle (1% DMSO, 5% Tween 80, 19% PEG200% and 75% distilled water). For behavioral and Immunohistochemistry assays, experimenters were blinded to animal identity while carrying out the procedures.” left out
# After the end of the experiment, blood was collected from the retinal orbital plexus of mice in EDTA-coated vials. […] The levels of Aβ in the plasma were measured by using the protein-specific ELISA kit.
# GFAP = test: Immunohistochemistry of GFAP in hippocampus; format: in vivo, 5x-FAD mice; details: 25 and 50 mg/kg, vs 5x-FAD control
# From the text: as §1, with “IBC was orally (OD) given to two groups at different doses, 25 mg/kg (1% DMSO, 2% Tween 80, 19% PEG200, and 78% distilled water) and 50 mg/kg (1% DMSO, 5% Tween 80, 19% PEG200% and 75% distilled water) using oral gavage. 5x-FAD control mice were administered with vehicle (1% DMSO, 5% Tween 80, 19% PEG200% and 75% distilled water). For behavioral and Immunohistochemistry assays, experimenters were blinded to animal identity while carrying out the procedures.” left out
# Mice’s hippocampus tissue was fixed in 10% formalin. […] Images were taken in a CQ1 high throughput imaging system and analyzed using cell pathfinder software.
# IL-1β = IL-1β in mice cortex by ELISA; format: in vivo, 5x-FAD mice; details: 25 and 50 mg/kg, vs 5x-FAD control
# From the text: After the termination of experiments, the supernatant was collected and analyzed for levels of cytokines. For measuring IL-1β and IL-18, supernatant collected after NLRP3 inflammasome activation as mentioned above, was subjected to ELISA. For detection of IL-1β in mice cortex, mice cortices were isolated and homogenized in RIPA buffer to measure IL-1β in homogenates. The manufacturer’s protocol was followed for measuring the cytokines. The levels of measured cytokines were normalized with the total protein content of the cells. For total protein content of cell pellet lysed with lysis buffer (0.2 N NaCl and 1% Triton-X 100) was measured.
# as §2
# Aβ42 [4] = test: Aβ clearance assay in primary astrocytes; format: cell-based, C57BL/6J mice
# Protocol: Aβ42-HiLyte fluor488 peptide was prepared following the manufacturer’s protocol (Anaspec Inc.). Primary astrocytes seeded on coverslips were treated with IBC (10 μM) or rapamycin (24 h). After 12 h, 2 μg/ml fluorochrome tagged (Hilyte fluor488) Aβ42 protein was added to cells for another 12 h. Bafilomycin A1 was given 3 h prior to experiment termination. After the end of the assay, cells were washed with PBS and cells were fixed with 4% PFA, permeabilized with Triton-X 100, and the nucleus was stained with DAPI, as mentioned above. Similarly, slides were prepared, and images were taken and analyzed in the CQ1 high throughput imaging system.
# AMPK expression was knocked down from the cells by using siRNA against AMPK using FuGENE HD for 24 h. Primary astrocytes seeded in 6 well plates were incubated in OPTI-MEM media for 30 min prior to transfection. The transfection mixture was prepared and kept in sterile condition for 20 min before being added to the cells. Following this, cells were treated for NLRP3 inflammasome activation as described above.
# [5] = 25 and 50 mg/kg oral, vs 5x-FAD control
compound,measurement,setting,value
"CC(C)=CCc1c(O)ccc(C(=O)/C=C/c2ccc(O)cc2)c1O [IBC, isobavachalcone]",Latency to first entry to baited arm,5x-FAD mice [1]; 25 mg/kg oral,16.58 s
same,Latency to first entry to baited arm,5x-FAD mice [1]; 50 mg/kg oral,14.36 s
same,Baited arm time,5x-FAD mice [1]; [5],significantly longer time
same,Distance traveled to find the baited arm,5x-FAD mice [1]; [5],significantly less distance
same,Entries to non-baited arm,5x-FAD mice [1]; [5],smaller number of entries
same,exploratory behavior in open field,5x-FAD mice [2],improved exploratory behavior
same,average number of Aβ plaques,Aβ plaques; 25 mg/kg oral 2 months,21
same,average number of Aβ plaques,Aβ plaques; 50 mg/kg oral 2 months,15
same,total Aβ fluorescence intensity,"Aβ plaques; 25 and 50 mg/kg, vs 5x-FAD control",highly significant decline
same,Aβ42 in blood plasma,Aβ42 [3],reduced levels
same,GFAP expression (IHC),GFAP,significantly reduced
same,IL-1β level in cortex,IL-1β,highly significant decline
same,intracellular Aβ level,Aβ42 [4]; 10 μM with bafilomycin A1,increased
same,effect on clearance of Aβ,Aβ42 [4]; 10 μM with siAMPK,complete reversal
same,intracellular Aβ42-HiLyte fluor488 fluorescence,"Aβ42 [4]; 10 μM, 24 h, vs cells with Aβ alone",significantly low fluorescence
